Laboratory results reported in ChEMBL document CHEMBL5046282, “Discovery of Brain-Penetrant Glucosylceramide Synthase Inhibitors with a Novel Pharmacophore” (J Med Chem, 2022).
Positions count from the first letter of the chain named. Active and inactive are the calls of the source. No cut-off for these calls is given here.

Key:
[1] = Volume of distribution at steady state in non-fasted ICR mouse at 0.5 mg/kg, iv by LC-MS/MS analysis; assay type: ADME, organism-based; conditions: in vivo, read-out: Vdss
[2] = Intrinsic clearance in mouse liver microsomes at 1 uM in presence of NADPH generating system assessed per mg protein by LC-MS/MS analysis; assay type: ADME, Microsome; conditions: read-out: CLH
[3] = Cmax in non-fasted ICR mouse at 5 mg/kg, po by LC-MS/MS analysis; assay type: ADME, organism-based; parameters: route oral, dose 5 mg/kg; conditions: in vivo
[4] = Cardiotoxicity in human iPSC-derived cardiomyocytes assessed as induction of proarrhythmic activity at 10 uM by Fluo-4 dye based fluorescence analysis; assay type: toxicity; conditions: cardiac muscle cell
[5] = MRT in non-fasted ICR mouse at 0.5 mg/kg, iv by LC-MS/MS analysis; assay type: ADME, organism-based; conditions: in vivo
Mus musculus = test: In vivo inhibition of GCS activity in po dosed C57BL/6J mouse assessed as reduction in GlcCer level in plasma measured after 6 hrs; assay type: functional, organism-based; conditions: dose 30-300 mg/kg
Nav1.5 = Nav1.5 (Homo sapiens, UniProt Q14524); test: Inhibition of human Nav1.5 at 30 uM by automated whole cell patch clamp assay; assay type: toxicity
Nav1.5, sequence (Q14524 whole entry): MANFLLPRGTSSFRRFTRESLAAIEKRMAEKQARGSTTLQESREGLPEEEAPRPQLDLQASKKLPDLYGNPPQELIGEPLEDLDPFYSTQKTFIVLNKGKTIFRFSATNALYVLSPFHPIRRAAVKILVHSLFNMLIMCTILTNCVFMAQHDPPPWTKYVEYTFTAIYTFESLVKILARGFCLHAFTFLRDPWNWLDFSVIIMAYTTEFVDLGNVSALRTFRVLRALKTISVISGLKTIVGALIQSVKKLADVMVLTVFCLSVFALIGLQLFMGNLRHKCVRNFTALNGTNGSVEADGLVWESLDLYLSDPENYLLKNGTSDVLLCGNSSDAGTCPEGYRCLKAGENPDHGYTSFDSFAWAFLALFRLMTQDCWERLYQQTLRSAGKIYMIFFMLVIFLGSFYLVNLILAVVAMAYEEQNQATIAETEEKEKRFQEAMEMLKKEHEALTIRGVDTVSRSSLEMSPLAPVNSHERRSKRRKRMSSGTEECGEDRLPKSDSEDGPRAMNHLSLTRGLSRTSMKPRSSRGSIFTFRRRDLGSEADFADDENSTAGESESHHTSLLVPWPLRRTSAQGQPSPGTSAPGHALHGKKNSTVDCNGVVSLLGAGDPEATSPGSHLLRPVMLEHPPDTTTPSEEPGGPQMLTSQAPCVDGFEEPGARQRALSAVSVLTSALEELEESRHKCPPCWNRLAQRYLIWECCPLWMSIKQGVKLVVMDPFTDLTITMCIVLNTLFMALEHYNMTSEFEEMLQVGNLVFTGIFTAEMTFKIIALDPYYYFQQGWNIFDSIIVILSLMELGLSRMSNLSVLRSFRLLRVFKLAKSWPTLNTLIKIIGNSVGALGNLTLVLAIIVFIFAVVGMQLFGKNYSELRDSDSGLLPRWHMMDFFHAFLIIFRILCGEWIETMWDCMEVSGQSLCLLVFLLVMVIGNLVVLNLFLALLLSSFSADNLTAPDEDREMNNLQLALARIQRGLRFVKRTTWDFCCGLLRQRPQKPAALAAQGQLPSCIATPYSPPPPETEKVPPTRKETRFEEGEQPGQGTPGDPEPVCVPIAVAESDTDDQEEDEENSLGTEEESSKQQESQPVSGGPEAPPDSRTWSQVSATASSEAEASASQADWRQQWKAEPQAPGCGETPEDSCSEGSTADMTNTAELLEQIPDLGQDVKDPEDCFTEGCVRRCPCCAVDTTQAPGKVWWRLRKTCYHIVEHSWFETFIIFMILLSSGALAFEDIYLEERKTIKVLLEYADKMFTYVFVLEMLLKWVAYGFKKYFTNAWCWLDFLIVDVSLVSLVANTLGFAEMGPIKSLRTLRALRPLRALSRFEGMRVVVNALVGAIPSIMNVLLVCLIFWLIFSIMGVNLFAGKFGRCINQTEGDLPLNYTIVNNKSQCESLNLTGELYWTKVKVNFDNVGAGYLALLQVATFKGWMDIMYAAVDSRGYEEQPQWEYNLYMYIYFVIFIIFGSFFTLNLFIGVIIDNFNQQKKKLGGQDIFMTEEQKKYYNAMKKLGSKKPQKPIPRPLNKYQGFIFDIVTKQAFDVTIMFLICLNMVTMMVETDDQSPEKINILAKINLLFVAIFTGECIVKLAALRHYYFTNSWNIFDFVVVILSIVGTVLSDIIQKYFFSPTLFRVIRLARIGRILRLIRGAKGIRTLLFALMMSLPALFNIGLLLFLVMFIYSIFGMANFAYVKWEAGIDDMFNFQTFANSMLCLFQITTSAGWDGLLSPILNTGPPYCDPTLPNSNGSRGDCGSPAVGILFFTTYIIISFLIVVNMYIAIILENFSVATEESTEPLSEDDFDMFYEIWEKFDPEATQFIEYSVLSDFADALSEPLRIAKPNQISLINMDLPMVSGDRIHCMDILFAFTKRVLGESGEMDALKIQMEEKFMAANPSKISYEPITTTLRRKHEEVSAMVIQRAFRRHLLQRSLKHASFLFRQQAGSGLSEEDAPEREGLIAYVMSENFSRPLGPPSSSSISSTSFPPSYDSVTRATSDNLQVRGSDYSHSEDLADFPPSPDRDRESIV

[6] = molecular target: T1, Ceramide glucosyltransferase (Homo sapiens) (UniProt Q16739); test: Non-competitive inhibition of GCS (unknown origin) using 1 to 70 uM C8-ceramide and 0.1 to 200 uM UDP-glucose as substrate incubated for 1 hr by RapidFire mass spectrometry
T1 sequence (whole entry): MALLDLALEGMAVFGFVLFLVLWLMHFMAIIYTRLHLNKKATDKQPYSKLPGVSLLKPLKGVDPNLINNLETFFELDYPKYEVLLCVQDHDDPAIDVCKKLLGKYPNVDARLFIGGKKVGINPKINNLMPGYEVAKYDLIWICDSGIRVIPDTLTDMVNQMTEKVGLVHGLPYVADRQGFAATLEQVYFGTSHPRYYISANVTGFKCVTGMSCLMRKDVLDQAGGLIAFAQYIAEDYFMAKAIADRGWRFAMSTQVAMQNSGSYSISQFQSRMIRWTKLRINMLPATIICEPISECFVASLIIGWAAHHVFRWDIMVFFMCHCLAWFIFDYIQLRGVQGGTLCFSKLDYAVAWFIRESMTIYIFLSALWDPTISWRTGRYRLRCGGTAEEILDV

[7] = Unbound drug concentration in brain of non-fasted ICR mouse at 30 mg/kg, po measured after 1 hr by LC-MS/MS analysis; assay type: ADME, organism-based; conditions: in vivo
[8] = Efflux ratio of apparent permeability from basolateral to apical side over apical to basolateral side in dog MDCK-MDR1 cells at 1 uM measured after 1 hr by LC-MS/MS analysis; assay type: ADME, cell-based, Canis lupus familiaris
[9] = Intrinsic clearance in human liver microsomes at 1 uM in presence of NADPH generating system assessed per mg protein by LC-MS/MS analysis; assay type: ADME, Microsome; conditions: read-out: CLH
CYP2C8 = molecular target: T2, CYP2C8 (Homo sapiens, UniProt P10632); test: Inhibition of CYP2C8 in human liver microsomes using paclitaxel as substrate at 10 uM in presence of NADPH generating system incubated for 10 mins; assay type: ADME; conditions: probe paclitaxel
T2 sequence (P10632 whole entry): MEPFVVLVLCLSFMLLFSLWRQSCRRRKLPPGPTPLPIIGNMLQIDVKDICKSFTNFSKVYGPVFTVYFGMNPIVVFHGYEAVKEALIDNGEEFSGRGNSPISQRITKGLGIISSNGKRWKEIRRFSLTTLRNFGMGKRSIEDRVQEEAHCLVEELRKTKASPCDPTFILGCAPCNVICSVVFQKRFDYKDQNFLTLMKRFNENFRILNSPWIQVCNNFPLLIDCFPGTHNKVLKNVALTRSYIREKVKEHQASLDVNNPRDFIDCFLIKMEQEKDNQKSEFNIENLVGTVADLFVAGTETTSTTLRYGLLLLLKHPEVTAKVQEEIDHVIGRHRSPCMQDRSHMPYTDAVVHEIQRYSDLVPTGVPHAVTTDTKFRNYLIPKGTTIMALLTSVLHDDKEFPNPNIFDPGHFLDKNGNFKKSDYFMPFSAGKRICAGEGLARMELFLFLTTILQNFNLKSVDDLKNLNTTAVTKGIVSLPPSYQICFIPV

Cav1.2 = Cav1.2 (Homo sapiens, UniProt Q13936); test: Inhibition of human Cav1.2 expressed in HEK293 cells at 30 uM by automated electrophysiology QPatch HT assay; assay type: toxicity, cell-based; conditions: HEK293 cells expressing Cav1.2
[10] = Ratio of unbound drug concentration in brain to plasma of non-fasted ICR mouse at 30 mg/kg, po measured after 1 hr by LC-MS/MS analysis; assay type: ADME, organism-based; conditions: read-out: K(p,uu,brain)
[11] = molecular target: T3, Ceramide glucosyltransferase (Mus musculus, UniProt O88693); test: Inhibition of mouse GCS using C8-ceramide and UDP-glucose as substrate incubated for 1 hr by RapidFire mass spectrometry
T3 sequence (O88693 whole entry): T1 sequence (whole entry) with L8Q, V13L, L20V, A29S, G131A, Y196S, A251S

CYP2D6 = CYP2D6 (Homo sapiens, UniProt P10635); test: Inhibition of CYP2D6 in human liver microsomes using dextromethorphan as substrate at 10 uM in presence of NADPH generating system incubated for 10 mins; assay type: ADME; conditions: probe dextromethorphan
CYP2D6, sequence (P10635 whole entry): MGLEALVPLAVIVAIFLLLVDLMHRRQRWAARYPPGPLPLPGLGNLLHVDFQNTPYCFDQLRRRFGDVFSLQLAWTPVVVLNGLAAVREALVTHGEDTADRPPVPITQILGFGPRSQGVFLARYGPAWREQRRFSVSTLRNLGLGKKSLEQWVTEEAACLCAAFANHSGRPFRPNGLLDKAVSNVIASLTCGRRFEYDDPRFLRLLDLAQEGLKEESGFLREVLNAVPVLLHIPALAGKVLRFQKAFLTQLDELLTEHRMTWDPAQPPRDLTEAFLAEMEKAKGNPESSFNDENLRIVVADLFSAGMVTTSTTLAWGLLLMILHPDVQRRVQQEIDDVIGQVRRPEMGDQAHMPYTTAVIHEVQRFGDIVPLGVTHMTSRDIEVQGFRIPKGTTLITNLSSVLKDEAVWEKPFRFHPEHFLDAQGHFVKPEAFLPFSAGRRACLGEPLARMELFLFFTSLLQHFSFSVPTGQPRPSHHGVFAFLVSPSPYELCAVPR

hERG = hERG (Homo sapiens, UniProt Q12809); test: Inhibition of hERG expressed in CHO-K1 cells at 30 uM by automated whole cell patch clamp assay; assay type: toxicity, cell-based; conditions: CHO-K1 cells expressing hERG
hERG, sequence (Q12809 whole entry): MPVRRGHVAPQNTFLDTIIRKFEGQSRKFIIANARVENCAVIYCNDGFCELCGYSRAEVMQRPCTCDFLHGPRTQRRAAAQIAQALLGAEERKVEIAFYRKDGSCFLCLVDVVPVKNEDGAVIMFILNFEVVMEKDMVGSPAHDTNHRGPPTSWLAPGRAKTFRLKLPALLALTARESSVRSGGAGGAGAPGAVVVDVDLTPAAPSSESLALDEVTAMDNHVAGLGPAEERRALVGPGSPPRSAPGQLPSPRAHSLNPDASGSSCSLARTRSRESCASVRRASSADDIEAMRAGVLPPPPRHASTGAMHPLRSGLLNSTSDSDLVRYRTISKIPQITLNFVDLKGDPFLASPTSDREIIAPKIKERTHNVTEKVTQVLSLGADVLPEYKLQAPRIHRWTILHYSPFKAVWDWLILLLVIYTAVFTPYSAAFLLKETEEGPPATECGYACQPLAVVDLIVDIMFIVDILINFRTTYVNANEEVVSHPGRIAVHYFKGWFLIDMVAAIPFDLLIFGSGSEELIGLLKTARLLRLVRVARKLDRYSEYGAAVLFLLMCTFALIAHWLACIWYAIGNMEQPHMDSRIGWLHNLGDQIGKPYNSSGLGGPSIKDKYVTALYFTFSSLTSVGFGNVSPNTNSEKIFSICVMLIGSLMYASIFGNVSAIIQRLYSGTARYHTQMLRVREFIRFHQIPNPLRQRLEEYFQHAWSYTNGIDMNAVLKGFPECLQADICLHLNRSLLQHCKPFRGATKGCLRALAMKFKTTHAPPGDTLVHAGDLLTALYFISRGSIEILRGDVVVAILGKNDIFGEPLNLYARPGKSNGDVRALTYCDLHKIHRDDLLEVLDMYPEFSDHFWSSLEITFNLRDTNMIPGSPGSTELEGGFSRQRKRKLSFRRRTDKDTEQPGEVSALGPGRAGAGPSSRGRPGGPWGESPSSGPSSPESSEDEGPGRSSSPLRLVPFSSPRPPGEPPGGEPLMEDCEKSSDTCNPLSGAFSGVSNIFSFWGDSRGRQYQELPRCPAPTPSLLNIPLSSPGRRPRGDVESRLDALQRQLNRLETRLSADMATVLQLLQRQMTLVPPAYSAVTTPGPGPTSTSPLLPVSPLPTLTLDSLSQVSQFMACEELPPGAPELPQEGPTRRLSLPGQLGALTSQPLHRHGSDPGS

[12] = molecular target: T4, Ceramide glucosyltransferase (Homo sapiens, UniProt Q16739); test: Inhibition of human GCS using C8-ceramide and UDP-glucose as substrate incubated for 1 hr by RapidFire mass spectrometry
T4 sequence (Q16739 whole entry): T1 sequence (whole entry)

[13] = molecular target: Sodium-dependent serotonin transporter (Homo sapiens, UniProt P31645); test: Inhibition of human SERT; assay type: toxicity
Sodium-dependent serotonin transporter, sequence (P31645 whole entry): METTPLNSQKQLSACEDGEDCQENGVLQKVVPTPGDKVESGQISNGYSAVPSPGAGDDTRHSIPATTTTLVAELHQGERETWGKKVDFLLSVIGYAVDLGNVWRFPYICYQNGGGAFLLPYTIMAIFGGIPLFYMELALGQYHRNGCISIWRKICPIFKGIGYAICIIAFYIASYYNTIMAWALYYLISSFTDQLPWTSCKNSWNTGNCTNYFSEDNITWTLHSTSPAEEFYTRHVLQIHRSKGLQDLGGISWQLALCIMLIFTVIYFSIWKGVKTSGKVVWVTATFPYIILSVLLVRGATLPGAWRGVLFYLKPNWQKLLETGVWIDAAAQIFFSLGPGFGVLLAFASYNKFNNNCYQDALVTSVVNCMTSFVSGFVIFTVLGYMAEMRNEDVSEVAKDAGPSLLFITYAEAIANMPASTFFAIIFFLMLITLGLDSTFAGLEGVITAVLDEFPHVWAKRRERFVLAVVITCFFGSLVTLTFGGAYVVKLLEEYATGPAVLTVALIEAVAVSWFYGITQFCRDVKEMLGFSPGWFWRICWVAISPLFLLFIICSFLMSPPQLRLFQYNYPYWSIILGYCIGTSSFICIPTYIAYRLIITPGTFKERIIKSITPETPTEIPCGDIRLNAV

[14] = molecular target: Ceramide glucosyltransferase (Homo sapiens, UniProt Q16739); test: Inhibition of GCS in GBA mutant human fibroblasts assessed as reduction in glucosylceramide level incubated for 4 days by RapdiFire-MS/MS analysis; assay type: cell-based; conditions: fibroblast
CYP2C9 = CYP2C9 (Homo sapiens, UniProt P11712); test: Inhibition of CYP2C9 in human liver microsomes using tolbutamide as substrate at 10 uM in presence of NADPH generating system incubated for 10 mins; assay type: ADME; conditions: probe tolbutamide
CYP2C9, sequence (P11712 whole entry): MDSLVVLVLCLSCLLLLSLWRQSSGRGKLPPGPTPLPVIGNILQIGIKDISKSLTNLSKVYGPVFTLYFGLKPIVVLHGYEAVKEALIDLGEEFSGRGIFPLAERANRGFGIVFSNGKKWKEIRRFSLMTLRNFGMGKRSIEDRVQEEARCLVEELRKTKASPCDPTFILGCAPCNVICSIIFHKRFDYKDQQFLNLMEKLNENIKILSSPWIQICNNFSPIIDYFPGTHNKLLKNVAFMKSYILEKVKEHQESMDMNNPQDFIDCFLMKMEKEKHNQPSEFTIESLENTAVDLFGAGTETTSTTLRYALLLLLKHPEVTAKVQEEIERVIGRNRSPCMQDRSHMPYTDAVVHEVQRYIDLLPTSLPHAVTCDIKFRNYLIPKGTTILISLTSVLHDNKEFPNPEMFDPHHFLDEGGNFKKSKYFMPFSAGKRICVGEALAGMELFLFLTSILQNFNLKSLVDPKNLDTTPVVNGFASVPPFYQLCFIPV

[15] = Plasma clearance in non-fasted ICR mouse at 0.5 mg/kg, iv by LC-MS/MS analysis; assay type: ADME, organism-based
[16] = Cardiotoxicity in human iPSC-derived cardiomyocytes assessed as minimum effective concentration required for intracellular calcium transients-mediated proarrhythmic activity by Fluo-4 dye based fluorescence analysis; assay type: toxicity; conditions: cardiac muscle cell

Vd [1]: 1.97 L/kg
microsomal CLint at 1 µM [2]: 1 µL/min/mg
Cmax [3]: 416 ng/mL
MRT [5]: 1.03 h
inhibition [6]: Active
Drug uptake(free) [7]: 0.21 µM
efflux ratio at 1 h, 1 µM [8]: 8.8
microsomal CLint at 1 µM [9]: 32 µL/min/mg
inhibition at 10 min, 10 µM (CYP2C8): 34.2%
Kp uu at 1 h [10]: 0.26
IC50 [11]: 190 nM
inhibition at 10 min, 10 µM (CYP2D6): 15.6%
IC50 [12]: 15 nM
EC50 [14]: 4.4 nM
inhibition at 10 min, 10 µM (CYP2C9): 24.9%
clearance [15]: 33.7 mL/min/kg
Compound: CC(C)(O)c1ccc(NC(=O)c2ccnn(-c3ccccc3OCC(F)(F)F)c2=O)cc1
Activity [4]: Non-Toxic
inhibition (Mus musculus): Dose-Dependent Effect
inhibition at 30 µM (Nav1.5): 20%
inhibition at 30 µM (Cav1.2): 7.3%
inhibition at 30 µM (hERG): 8%
IC50 [13]: > 10000 nM
MEC [16]: > 10 µM
